Measured values published in US9884863B2, “STAT3 inhibitor” (Board of Regents, The University of Texas System, priority 2013, dated 2018).

Tests used:
[1] = test system: MDA-MB-231 and MDA-MB-468 cells; test: Colony formation assay; type: cell-based, human; settings: 15 days, starting at 0.625 μM
Procedure: Colony Formation Assay: MDA-MB-468 and MDA-MB-231 cells were seeded in 6-well plates with a density of 800-3000 cells/well, respectively. […] The culture media with the compounds were changed every 72 h. After two weeks, the wells were washed twice with PBS buffer and 2 mL of 0.01% crystal violet staining buffer was added and incubated for 10 min. The wells were then washed with PBS for 5 min for three times, and allowed to dry. Photographs were then taken and the density of the entire culture well area was digitally measured using the GelCount™ instrument (Oxford Optronix, UK). Experiments were performed in triplicate and the density data were analyzed with one-way ANOVA using GraphPad Prizm 6 software. Error bars represent standard deviation.

[2] = test system: STAT3 promoter activity in MDA-MB-231 cells; test: Transient transfection and dual luciferase reporter assay (pSTAT3-Luc); type: cell-based, human; settings: 24 h
Procedure: MDA-MB-231 cells were pre-treated with niclosamide or 11 at different concentrations for 24 h. The STAT3 promoter activity in MDA-MB-231 cells was determined after transient transfecting with pSTAT3-Luc vector.
Transient Transfection and Dual Luciferase Reporter Assays. MBA-MB-231 cells were seeded in 24-well plate at a density of 5×10^4 cells/well in RPMI-1640 medium containing 10% FBS and 1% penicillin-streptomycin. Transient transfections were performed 4 h after plating, using the method described previously (Rees, D. C. et al., 2004; Shen, Q. et al., 2008). Total amount of DNA for transfections was 0.5 μg/well, including pSTAT3-Luc (95%, obtained from Panomics, Cat# LR0077) and internal control vector renilla (5%, from Promega, Madison, Wis., USA). 5 h after transfection, the cells were treated with compound […] for 24 h, then reporter activity was evaluated using dual luciferase reporter assay kit (Promega, Madison, Wis., USA) on an Omega™ Microplate Luminometer (BMG LABTECH Inc., NC, USA). Relative luciferase units were the ratio of the absolute activity of firefly luciferase to that of renilla luciferase. Experiments were conducted with triplicates and results are representatives of at least 3 independent experiments.

[3] = test system: STAT family, STAT3-dependent genes and JAKs in MDA-MB-231 cells; test: Western blot analysis, MDA-MB-231 cells; type: cell-based, human; settings: 24 h; Example 3 numbering
Procedure: Blocking STAT3 signaling in many different tumor cells leads to induce growth arrest and apoptosis (Turkson, J. et al., 2000; Bromberg, J., 2002; Zhang, X. et al., 2012).
Western Blot Analysis. Protein levels were determined by Western blot using the previously described methods (Shen, Q. et al., 2008). Total cell lysates were prepared from MDA-MB-231 cells. Protein concentrations were measured using the BCA Protein Assay Reagent (Pierce, Rockford, Ill., USA). Equal amounts of total cellular protein extract (40 μg) were resuspended in denaturing sample loading buffer (0.5 M Tris-HCl, pH 6.8, 10% SDS, 0.1% bromophenol blue, and 20% glycerol), separated by electrophoresis on a 10% polyacrylamide SDS-PAGE gel and then electrophoretically transferred to a nitrocellulose membrane (Thermo Scientific, Ill., USA) at 100 Volts for 1 h at 4° C. The membrane was then incubated in a blocking solution containing 5% non-fat milk and 1% Tween 20 in TBS for 1 h. The membrane was then incubated with antibodies specific for: phospho-STAT3-pY705 (1:3000, Epitomics, #2236-1), STAT3 (1:2000, Cell Signaling, #4904), Caspase-3-cleaved (1:2000, Epitomics, #1476-1), Cyclin D1 (1:10000, Epitomics, #2261-1) and β-actin (1:10000, Sigma, clone AC-15). An anti-rabbit or anti-mouse secondary antibody (Amersham, Piscataway, N.J.) was used at 1:4000 dilution. The Western blotted bands were visualized using ECL procedure according to the manufacturer's instructions (Amersham).

MDA-MB-231 cells = test: Apoptosis assay (annexin V, flow cytometry); type: cell-based, human; settings: dose-dependent; Example 3 numbering
Procedure: Cell Cycle Assay and Apoptosis Assay: Cell cycle and apoptosis kits (#MCH100106 and #MCH100105, Millipore, Mass.) were used. […] 24 and 48 h after drug treatment, both adherent and floating cells were collected, washed once with PBS and fixed in cold ethanol for at least 4 h before cell cycle analysis. The fixed cells were then washed twice with PBS and resuspended in 200 μL cell cycle detection reagent, incubated for 30 minutes in dark at room temperature. Cell cycle distribution was measured by the Muse Cell Analyzer with Muse™ Cell Cycle. Similarly, MDA-MB-231 cells with the same treatments were prepared for apoptosis assay. After washing with PBS, resuspended cells were incubated with 100 μL PBS containing 1% BSA and 100 μL Annexin V and dead cell detection reagent in dark for 20 minutes at room temperature. Apoptosis was measured immediately using the Muse Cell Analyzer with the Muse™ Apoptosis Program.

[4] = type: in vivo; settings: oral gavage 14 days; HJC0152 25 mg/kg, niclosamide 75 mg/kg
Procedure: Female nude mice at 4 to 6 wk of age were obtained from MDACC ERO facility. The mice were maintained in a barrier unit with 12 hours light-dark switch room and all materials were autoclaved. Freshly harvested MDA-MB-231 cells (2.5×10^6 cells per mouse, resuspended in 100 μl PBS) were injected into the 3rd mammary fat pad of the mice, and then mice were randomly assigned into control and treatment groups (≧6 mice per group). Treatment started when the xenograft mammary tumors reaches a volume of 200 mm^3. […] Mice were monitored daily for general health conditions (body weight, fur coat condition and posture) and toxicity (hair loss, skin rash, abdominal distension). […] Tumor volume was calculated as V=W^2×L/2, where L=longer diameter (mm) and W=width of short diameter (mm). […]
Female nude mice were obtained from MDACC and were used for orthotopic tumor studies at 4 to 6 weeks of age. […] Body weights and tumors volume were measured daily and tumor volume was calculated according to the formula V=0.5×L×W^2, where L=length (mm) and W=width (mm).
Twenty-two female nude mice (8 wks of age) were obtained from MDACC ERC Center. […] Body weights and tumors volume were measured daily and tumor volume calculated using the formula V=0.5×L×W^2, where L=length (mm) and W=width (mm) of xenograft tumors. Signs of toxicity were recorded individually. […]

AsPC1 = test: MTS cell proliferation assay, AsPC1; type: cell-based, human; settings: Homo sapiens, ASPC1, 72 h, read-out: IC50 AsPC1 (Table 4)
In short: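 Cells seeded at 2×10^3 cells/well and exposed 72 h to DMSO or 0.01–100 μM STAT3 inhibitor, quadruplicate wells per concentration. Proliferation read by MTS reduction, OD 550 nm after 1 h at 37 °C.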

For `O=C(Nc1ccc([N+](=O)[O-])cc1Cl)c1cc(Cl)ccc1O` [niclosamide, reference compound], the colony formation [1] was “significant suppression of colony formation”, the “STAT3 promoter activity at 20 μM, in words” value [2] was “suppressed” and the “phosphorylated STAT3 at Tyr-705 (Example 3)” value [3] was “suppressed”. For the same molecule, the “total STAT3 level (Example 3)” value [3] was “reduced”, the “apoptosis, annexin V (Example 3)” value (MDA-MB-231 cells) was “activated apoptosis” and the “toxicity signs in treated mice” value [4] was “No toxicity signs”. For the same molecule, the IC50 (AsPC1) was 1.47 µM.
